Reference: ChEMBL document CHEMBL3885861, “Open TG-GATES”

Organism: Rattus norvegicus
Experiment: Open TG-GATES - Regimen: Single
Type: toxicity, organism-based, Sprague-Dawley
Design: regimen Single, gender Male, age 6 weeks
Conditions: in vivo, po, 30 mg/kg, route gavage, dose level Middle; for APTT / Bas / Eos / Fbg / Ht / Lym / MCH / MCHC / MCV / Mono / Neu / PT / Plat / RBC / Ret / WBC: tissue Blood; for KIDNEY_L / KIDNEY_R / KIDNEY_TOTAL: tissue Kidney; for LIVER: tissue Liver; for ALP / ALT / AST / BUN / CRE / Ca / Cl / DBIL / GLC / IP / K / LDH / Na / PL / RALB / TBIL / TC / TG / TP / gamma-GTP: tissue Plasma

SMILES: Cc1cccc(Nc2cc(Cl)nc(SCC(=O)O)n2)c1C [PIRINIXIC ACID]
- TERMINAL_BW (3 h): 204.3 g
- APTT (3 h): 17.1 s
- Bas (3 h): 0%
- Eos (3 h): 0.4%
- Fbg (3 h): 275 mg/dL
- Ht (3 h): 39.7%
- Lym (3 h): 77.6%
- MCH (3 h): 21.5 pg
- MCHC (3 h): 34.3%
- MCV (3 h): 62.6 fL
- Mono (3 h): 3%
- Neu (3 h): 18%
- PT (3 h): 12.5 s
- Plat (3 h): 130.4 x10_4/uL
- RBC (3 h): 634 x10_4/ul
- Ret (3 h): 7.9%
- WBC (3 h): 74.5 x10_2/uL
- KIDNEY_L (3 h): 0.9 g
- KIDNEY_R (3 h): 0.9 g
- KIDNEY_TOTAL (3 h): 1.8 g
- LIVER (3 h): 8.9 g
- ALP (3 h): 1689.8 IU/L
- ALT (3 h): 49.2 IU/L
- AST (3 h): 74 IU/L
- BUN (3 h): 9 mg/dL
- CRE (3 h): 0.1 mg/dL
- Ca (3 h): 11 mg/dL
- Cl (3 h): 103.8 meq/L
- DBIL (3 h): 0.088 mg/dL
- GLC (3 h): 184.2 mg/dL
- IP (3 h): 10.1 mg/dL
- K (3 h): 3.9 meq/L
- LDH (3 h): 65.6 IU/L
- Na (3 h): 139.8 meq/L
- PL (3 h): 172.4 mg/dL
- RALB (3 h): 2.7 g/dL
- TBIL (3 h): 0.052 mg/dL
- TC (3 h): 79 mg/dL
- TG (3 h): 251.8 mg/dL
- TP (3 h): 5.8 g/dL
- gamma-GTP (3 h): 1 IU/L
- TERMINAL_BW (6 h): 205.1 g
- APTT (6 h): 16.2 s
- Bas (6 h): 0%
- Eos (6 h): 1%
- Fbg (6 h): 274.6 mg/dL
- Ht (6 h): 40.3%
- Lym (6 h): 70.8%
- MCH (6 h): 20.8 pg
- MCHC (6 h): 34.1%
- MCV (6 h): 61 fL
- Mono (6 h): 2.4%
- Neu (6 h): 25.4%
- PT (6 h): 12.4 s
- Plat (6 h): 117.5 x10_4/uL
- RBC (6 h): 661.2 x10_4/ul
- Ret (6 h): 7.5%
- WBC (6 h): 71.7 x10_2/uL
- KIDNEY_L (6 h): 0.9 g
- KIDNEY_R (6 h): 0.9 g
- KIDNEY_TOTAL (6 h): 1.7 g
- LIVER (6 h): 8.2 g
- ALP (6 h): 1624.2 IU/L
- ALT (6 h): 46.6 IU/L
- AST (6 h): 77.8 IU/L
- BUN (6 h): 8.8 mg/dL
- CRE (6 h): 0.2 mg/dL
- Ca (6 h): 10.7 mg/dL
- Cl (6 h): 105.4 meq/L
- DBIL (6 h): 0.036 mg/dL
- GLC (6 h): 177.8 mg/dL
- IP (6 h): 10.7 mg/dL
- K (6 h): 4.3 meq/L
- LDH (6 h): 59.8 IU/L
- Na (6 h): 139.6 meq/L
- PL (6 h): 149.4 mg/dL
- RALB (6 h): 2.6 g/dL
- TBIL (6 h): 0.046 mg/dL
- TC (6 h): 76.4 mg/dL
- TG (6 h): 115.4 mg/dL
- TP (6 h): 5.4 g/dL
- gamma-GTP (6 h): 1.4 IU/L
- TERMINAL_BW (9 h): 204.7 g
- APTT (9 h): 15.6 s
- Bas (9 h): 0%
- Eos (9 h): 0.6%
- Fbg (9 h): 267.4 mg/dL
- Ht (9 h): 38.8%
- Lym (9 h): 78.8%
- MCH (9 h): 21.1 pg
- MCHC (9 h): 34.3%
- MCV (9 h): 61.4 fL
- Mono (9 h): 2%
- Neu (9 h): 18%
- PT (9 h): 12.3 s
- Plat (9 h): 121.4 x10_4/uL
- RBC (9 h): 631.6 x10_4/ul
- Ret (9 h): 7.8%
- WBC (9 h): 66.7 x10_2/uL
- KIDNEY_L (9 h): 0.9 g
- KIDNEY_R (9 h): 0.8 g
- KIDNEY_TOTAL (9 h): 1.7 g
- LIVER (9 h): 7.9 g
- ALP (9 h): 1566.2 IU/L
- ALT (9 h): 35.8 IU/L
- AST (9 h): 65.8 IU/L
- BUN (9 h): 9.6 mg/dL
- CRE (9 h): 0.2 mg/dL
- Ca (9 h): 10.5 mg/dL
- Cl (9 h): 104.2 meq/L
- DBIL (9 h): 0.026 mg/dL
- GLC (9 h): 185.8 mg/dL
- IP (9 h): 11.1 mg/dL
- K (9 h): 3.9 meq/L
- LDH (9 h): 61.6 IU/L
- Na (9 h): 140.6 meq/L
- PL (9 h): 122.8 mg/dL
- RALB (9 h): 2.6 g/dL
- TBIL (9 h): 0.038 mg/dL
- TC (9 h): 67.8 mg/dL
- TG (9 h): 68.8 mg/dL
- TP (9 h): 5.3 g/dL
- gamma-GTP (9 h): 1.4 IU/L
- TERMINAL_BW (24 h): 211.1 g
- APTT (24 h): 16.1 s
- Bas (24 h): 0%
- Eos (24 h): 1.2%
- Fbg (24 h): 216.4 mg/dL
- Ht (24 h): 39.1%
- Lym (24 h): 76.2%
- MCH (24 h): 21.4 pg
- MCHC (24 h): 34.5%
- MCV (24 h): 61.9 fL
- Mono (24 h): 3%
- Neu (24 h): 19.6%
- PT (24 h): 13 s
- Plat (24 h): 110.1 x10_4/uL
- RBC (24 h): 632.4 x10_4/ul
- Ret (24 h): 6.8%
- WBC (24 h): 75.4 x10_2/uL
- KIDNEY_L (24 h): 0.9 g
- KIDNEY_R (24 h): 0.9 g
- KIDNEY_TOTAL (24 h): 1.8 g
- LIVER (24 h): 10.2 g
- ALP (24 h): 1775.4 IU/L
- ALT (24 h): 51.8 IU/L
- AST (24 h): 73.4 IU/L
- BUN (24 h): 14.4 mg/dL
- CRE (24 h): 0.2 mg/dL
- Ca (24 h): 10.7 mg/dL
- Cl (24 h): 104 meq/L
- DBIL (24 h): 0.018 mg/dL
- GLC (24 h): 189.6 mg/dL
- IP (24 h): 8.6 mg/dL
- K (24 h): 4 meq/L
- LDH (24 h): 58 IU/L
- Na (24 h): 141.6 meq/L
- PL (24 h): 111.4 mg/dL
- RALB (24 h): 2.6 g/dL
- TBIL (24 h): 0.03 mg/dL
- TC (24 h): 59.2 mg/dL
- TG (24 h): 37.6 mg/dL
- TP (24 h): 5.3 g/dL
- gamma-GTP (24 h): 1.2 IU/L
